Assay results: PubChem BioAssay AID2060886 (Molecular Pharmacology Branch, DTP, NCI, 2025)

System: 653999-131-R-J2-PDC complex spheroids, growth inhibition
Assay: Anticancer human tumor 653999-131-R-J2-PDC patient-derived lung adenocarcinoma cell line growth inhibition [RAS]
Conditions: for viability, T/C: stronger effect = lower value; active = viability on the fitted dose curve at most 10% of control; inactive = the rest
Procedure, shortened: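 Tumour cells grown as complex spheroids with HUVEC endothelial cells and mesenchymal stem cells, treated with RAS pathway inhibitor combinations. Each agent spans half-log steps from near clinical Cmax, or 10 microM where Cmax is unknown.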

[1] = curve of first compound, second compound 0.000949 µM
[2] = curve of first compound, second compound 0.003 µM
[3] = curve of first compound, second compound 0.00949 µM
[4] = curve of first compound, second compound 0.03 µM
[5] = curve of first compound, second compound 0.0949 µM
[6] = curve of first compound, second compound 0.3 µM
[7] = second compound 0.000949 µM, first compound 0.0316 µM
[8] = second compound 0.000949 µM, first compound 0.1 µM
[9] = second compound 0.000949 µM, first compound 0.316 µM
[10] = second compound 0.000949 µM, first compound 1 µM
[11] = second compound 0.003 µM, first compound 0.0316 µM
[12] = second compound 0.003 µM, first compound 0.1 µM
[13] = second compound 0.003 µM, first compound 0.316 µM
[14] = second compound 0.003 µM, first compound 1 µM
[15] = second compound 0.00949 µM, first compound 0.0316 µM
[16] = second compound 0.00949 µM, first compound 0.1 µM
[17] = second compound 0.00949 µM, first compound 0.316 µM
[18] = second compound 0.00949 µM, first compound 1 µM
[19] = second compound 0.03 µM, first compound 0.0316 µM
[20] = second compound 0.03 µM, first compound 0.1 µM
[21] = second compound 0.03 µM, first compound 0.316 µM
[22] = second compound 0.03 µM, first compound 1 µM
[23] = second compound 0.0949 µM, first compound 0.0316 µM
[24] = second compound 0.0949 µM, first compound 0.1 µM
[25] = second compound 0.0949 µM, first compound 0.316 µM
[26] = second compound 0.0949 µM, first compound 1 µM
[27] = second compound 0.3 µM, first compound 0.0316 µM
[28] = second compound 0.3 µM, first compound 0.1 µM
[29] = second compound 0.3 µM, first compound 0.316 µM
[30] = second compound 0.3 µM, first compound 1 µM
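Note: spheroids exposed to the agents for seven days before the readout.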

CC1(O)CCCC1n1c(=O)c(C(F)F)cc2cnc(NC3CCN(S(C)(=O)=O)CC3)nc21 (stereo not drawn) + CCn1c(-c2cccnc2C(C)OC)c2c3cc(ccc31)N1CCOC(CC(NC(=O)C(C(C)C)N(C)C(=O)C3(F)CCN(C(=O)C#CC(C)(C)N(C)C)CC3)C(=O)N3CCCC(N3)C(=O)OCC(C)(C)C2)C1
6620 nM: IC50 [6]
> 10000 nM: IC50 [1] | IC50 [4]
6610 nM: IC50 [2]
6910 nM: IC50 [5]
6600 nM: IC50 [3]
inactive: viability, T/C [7] 88.3% | viability, T/C [8] 71.1% | viability, T/C [9] 67.8% | viability, T/C [10] 59.2% | viability, T/C (second compound 0.000949 µM, first compound 3.16 µM) 81.2% | viability, T/C (second compound 0.000949 µM, first compound 10 µM) 47.2% | viability, T/C [11] 86.8% | viability, T/C [12] 71.4% | viability, T/C [13] 73.4% | viability, T/C [14] 62.5% | viability, T/C (second compound 0.003 µM, first compound 3.16 µM) 71.7% | viability, T/C (second compound 0.003 µM, first compound 10 µM) 39.6% | viability, T/C [15] 97.2% | viability, T/C [16] 69.3% | viability, T/C [17] 78.6% | viability, T/C [18] 79.8% | viability, T/C (second compound 0.00949 µM, first compound 3.16 µM) 79.5% | viability, T/C (second compound 0.00949 µM, first compound 10 µM) 33.4% | viability, T/C [19] 92.6% | viability, T/C [20] 62.1% | viability, T/C [21] 60.9% | viability, T/C [22] 63.8% | viability, T/C (second compound 0.03 µM, first compound 3.16 µM) 83.3% | viability, T/C (second compound 0.03 µM, first compound 10 µM) 42.5% | viability, T/C [23] 86.8% | viability, T/C [24] 73.4% | viability, T/C [25] 64.4% | viability, T/C [26] 65.4% | viability, T/C (second compound 0.0949 µM, first compound 3.16 µM) 85.9% | viability, T/C (second compound 0.0949 µM, first compound 10 µM) 38.1% | viability, T/C [27] 84.3% | viability, T/C [28] 62.3% | viability, T/C [29] 72% | viability, T/C [30] 68.9% | viability, T/C (second compound 0.3 µM, first compound 3.16 µM) 88.9% | viability, T/C (second compound 0.3 µM, first compound 10 µM) 36.1%

CC(Nc1ccc2c(c1)OCCn1cc(N3C(=O)OCC3C(F)F)nc1-2)C(N)=O (stereo not drawn)
inactive: viability, T/C (compound 0.0316 µM) 79.8% [middle of 4 runs] | viability, T/C (compound 0.1 µM) 77.8% [middle of 4 runs] | viability, T/C (compound 0.316 µM) 57.4% [middle of 4 runs] | viability, T/C (compound 1 µM) 45.6% [middle of 4 runs] | viability, T/C (compound 3.16 µM) 36.4% [middle of 4 runs] | viability, T/C (compound 10 µM) 25.5% [middle of 4 runs]
727 nM [middle of 4 runs]: IC50 (curve of compound)

C=CC(=O)Nc1cc(Nc2nccc(-c3cn(C)c4ccccc34)n2)c(OC)cc1N(C)CCN(C)C + CCn1c(-c2cc(N3CCN(C)CC3)cnc2C(C)OC)c2c3cc(ccc31)-c1csc(n1)CC(NC(=O)C1CC1C)C(=O)N1CCCC(N1)C(=O)OCC(C)(C)C2
< 3.16 nM: IC50 [3] | IC50 [4] | IC50 [5] | IC50 [6]
106 nM: IC50 [2]
inactive: viability, T/C (second compound 0.000949 µM, first compound 0.00316 µM) 88.7% | viability, T/C (second compound 0.000949 µM, first compound 0.01 µM) 75.9% | viability, T/C [7] 56.2% | viability, T/C [8] 76% | viability, T/C [9] 56.7% | viability, T/C [10] 44.5% | viability, T/C (second compound 0.003 µM, first compound 0.00316 µM) 80.6% | viability, T/C (second compound 0.003 µM, first compound 0.01 µM) 63.7% | viability, T/C [11] 59% | viability, T/C [12] 52.9% | viability, T/C [13] 43.1% | viability, T/C [14] 37.2% | viability, T/C (second compound 0.00949 µM, first compound 0.00316 µM) 47.3% | viability, T/C (second compound 0.00949 µM, first compound 0.01 µM) 39.5% | viability, T/C [15] 36.7% | viability, T/C [16] 38% | viability, T/C [17] 31.6% | viability, T/C [18] 23.2% | viability, T/C (second compound 0.03 µM, first compound 0.00316 µM) 36.4% | viability, T/C (second compound 0.03 µM, first compound 0.01 µM) 29.9% | viability, T/C [19] 28% | viability, T/C [20] 37.2% | viability, T/C [21] 28.8% | viability, T/C [22] 16.2% | viability, T/C (second compound 0.0949 µM, first compound 0.00316 µM) 25.3% | viability, T/C (second compound 0.0949 µM, first compound 0.01 µM) 25.1% | viability, T/C [23] 20.9% | viability, T/C [24] 16.8% | viability, T/C [25] 18.6% | viability, T/C [26] 12.7% | viability, T/C (second compound 0.3 µM, first compound 0.00316 µM) 18.2% | viability, T/C (second compound 0.3 µM, first compound 0.01 µM) 26.2% | viability, T/C [27] 22.1% | viability, T/C [28] 22.1% | viability, T/C [29] 16.6% | viability, T/C [30] 11.2%
816 nM: IC50 [1]

CC1(C)CCC(Nc2ncc(C(F)(F)F)c(-c3c[nH]c4c(P(C)(C)=O)c(C#N)ccc34)n2)CN1 (stereo not drawn) + CCn1c(-c2cc(N3CCN(C)CC3)cnc2C(C)OC)c2c3cc(ccc31)-c1csc(n1)CC(NC(=O)C1CC1C)C(=O)N1CCCC(N1)C(=O)OCC(C)(C)C2
> 300 nM: IC50 [1]
< 0.949 nM: IC50 [2] | IC50 [3] | IC50 [4] | IC50 [5] | IC50 [6]
inactive: viability, T/C (second compound 0.000949 µM, first compound 0.000949 µM) 60.9% | viability, T/C (second compound 0.000949 µM, first compound 0.003 µM) 58.4% | viability, T/C (second compound 0.000949 µM, first compound 0.00949 µM) 56.4% | viability, T/C (second compound 0.000949 µM, first compound 0.03 µM) 45.1% | viability, T/C (second compound 0.000949 µM, first compound 0.0949 µM) 56.4% | viability, T/C (second compound 0.000949 µM, first compound 0.3 µM) 61.2% | viability, T/C (second compound 0.003 µM, first compound 0.000949 µM) 51% | viability, T/C (second compound 0.003 µM, first compound 0.003 µM) 41.6% | viability, T/C (second compound 0.003 µM, first compound 0.00949 µM) 40.8% | viability, T/C (second compound 0.003 µM, first compound 0.03 µM) 44.7% | viability, T/C (second compound 0.003 µM, first compound 0.0949 µM) 41.1% | viability, T/C (second compound 0.003 µM, first compound 0.3 µM) 38.2% | viability, T/C (second compound 0.00949 µM, first compound 0.000949 µM) 35.9% | viability, T/C (second compound 0.00949 µM, first compound 0.003 µM) 24.3% | viability, T/C (second compound 0.00949 µM, first compound 0.00949 µM) 21.4% | viability, T/C (second compound 0.00949 µM, first compound 0.03 µM) 21.6% | viability, T/C (second compound 0.00949 µM, first compound 0.0949 µM) 27.6% | viability, T/C (second compound 0.00949 µM, first compound 0.3 µM) 22.3% | viability, T/C (second compound 0.03 µM, first compound 0.000949 µM) 17.8% | viability, T/C (second compound 0.03 µM, first compound 0.003 µM) 18.3% | viability, T/C (second compound 0.03 µM, first compound 0.00949 µM) 17.4% | viability, T/C (second compound 0.03 µM, first compound 0.03 µM) 13.4% | viability, T/C (second compound 0.03 µM, first compound 0.0949 µM) 15.9% | viability, T/C (second compound 0.03 µM, first compound 0.3 µM) 16.5% | viability, T/C (second compound 0.0949 µM, first compound 0.000949 µM) 16.4% | viability, T/C (second compound 0.0949 µM, first compound 0.003 µM) 17.8% | viability, T/C (second compound 0.0949 µM, first compound 0.00949 µM) 14.5% | viability, T/C (second compound 0.0949 µM, first compound 0.03 µM) 14.4% | viability, T/C (second compound 0.0949 µM, first compound 0.0949 µM) 14.1% | viability, T/C (second compound 0.0949 µM, first compound 0.3 µM) 16.3% | viability, T/C (second compound 0.3 µM, first compound 0.000949 µM) 14.5% | viability, T/C (second compound 0.3 µM, first compound 0.003 µM) 15.2% | viability, T/C (second compound 0.3 µM, first compound 0.00949 µM) 14.7% | viability, T/C (second compound 0.3 µM, first compound 0.03 µM) 14.8% | viability, T/C (second compound 0.3 µM, first compound 0.0949 µM) 13.7% | viability, T/C (second compound 0.3 µM, first compound 0.3 µM) 15.7%
